From ChEMBL document CHEMBL4396937, “Synthesis of new triazole fused imidazo[2,1-b]thiazole hybrids with emphasis on Staphylococcus aureus virulence factors” (Bioorg Med Chem Lett, 2019)
Values after ≈ are worked out from the molar mass of the structure shown. Active and inactive are the calls of the source. The calls are words filed in the database; no cut-off is given here.

Legend:
Type in all cases: functional
[1] = tested on: Bacillus subtilis; assay: Antibacterial activity against Bacillus subtilis MTCC 121 assessed as reduction in bacterial growth incubated for 24 hrs by agar well diffusion method
[2] = tested on: Staphylococcus aureus; assay: Antibacterial activity against Staphylococcus aureus MLS-16 MTCC 2940 assessed as reduction in bacterial growth incubated for 24 hrs by agar well diffusion method
[3] = tested on: Micrococcus luteus; assay: Antibacterial activity against Micrococcus luteus MTCC 2470 assessed as reduction in bacterial growth incubated for 24 hrs by agar well diffusion method
[4] = tested on: Staphylococcus aureus; assay: Antibacterial activity against Staphylococcus aureus MTCC 96 assessed as reduction in bacterial growth incubated for 24 hrs by agar well diffusion method
[5] = tested on: Escherichia coli; assay: Antibacterial activity against Escherichia coli MTCC 739 assessed as reduction in bacterial growth incubated for 24 hrs by agar well diffusion method
[6] = tested on: Pseudomonas aeruginosa; assay: Antibacterial activity against Pseudomonas aeruginosa MTCC 2453 assessed as reduction in bacterial growth incubated for 24 hrs by agar well diffusion method
[7] = tested on: Raoultella planticola; assay: Antibacterial activity against Klebsiella planticola MTCC 530 assessed as reduction in bacterial growth incubated for 24 hrs by agar well diffusion method
[8] = tested on: Candida albicans; assay: Antifungal activity against Candida albicans MTCC 3017 assessed as reduction in fungal growth incubated for 24 hrs by agar well diffusion method; details: MTCC 3017, 24 h
[9] = tested on: Bacillus subtilis; assay: Bactericidal activity against Bacillus subtilis MTCC 121 assessed as reduction in bacterial survival incubated for 24 hrs followed by transfer of microbial suspension to agar plates and measured at 24 hrs post transfer by agar well diffusion method
[10] = tested on: Staphylococcus aureus; assay: Bactericidal activity against Staphylococcus aureus MLS-16 MTCC 2940 assessed as reduction in bacterial survival incubated for 24 hrs followed by transfer of microbial suspension to agar plates and measured at 24 hrs post transfer by agar well diffusion method
[11] = tested on: Micrococcus luteus; assay: Bactericidal activity against Micrococcus luteus MTCC 2470 assessed as reduction in bacterial survival incubated for 24 hrs followed by transfer of microbial suspension to agar plates and measured at 24 hrs post transfer by agar well diffusion method
[12] = tested on: Staphylococcus aureus; assay: Bactericidal activity against Staphylococcus aureus MTCC 96 assessed as reduction in bacterial survival incubated for 24 hrs followed by transfer of microbial suspension to agar plates and measured at 24 hrs post transfer by agar well diffusion method
[13] = tested on: Escherichia coli; assay: Bactericidal activity against Escherichia coli MTCC 739 assessed as reduction in bacterial survival incubated for 24 hrs followed by transfer of microbial suspension to agar plates and measured at 24 hrs post transfer by agar well diffusion method
[14] = tested on: Pseudomonas aeruginosa; assay: Bactericidal activity against Pseudomonas aeruginosa MTCC 2453 assessed as reduction in bacterial survival incubated for 24 hrs followed by transfer of microbial suspension to agar plates and measured at 24 hrs post transfer by agar well diffusion method
[15] = tested on: Raoultella planticola; assay: Bactericidal activity against Klebsiella planticola MTCC 530 assessed as reduction in bacterial survival incubated for 24 hrs followed by transfer of microbial suspension to agar plates and measured at 24 hrs post transfer by agar well diffusion method
[16] = tested on: Candida albicans; assay: Fungicidal activity against Candida albicans MTCC 3017 assessed as reduction in fungal survival incubated for 24 hrs followed by transfer of microbial suspension to agar plates and measured at 24 hrs post transfer by agar well diffusion method; details: MTCC 3017, 24 h

Structure (SMILES) | MIC ([1]; MTCC 121, 24 h) | MIC ([2]; MLS-16 MTCC 2940, 24 h) | MIC ([3]; MTCC 2470, 24 h) | MIC ([4]; MTCC 96, 24 h) | MIC ([5]; MTCC 739, 24 h) | MIC ([6]; MTCC 2453, 24 h) | MIC ([7]; MTCC 530, 24 h) | MIC [8] | MBC ([9]; MTCC 121, 24 h) | MBC ([10]; MLS-16 MTCC 2940, 24 h) | MBC ([11]; MTCC 2470, 24 h) | MBC ([12]; MTCC 96, 24 h) | MBC ([13]; MTCC 739, 24 h) | MBC ([14]; MTCC 2453, 24 h) | MBC ([15]; MTCC 530, 24 h) | MFC [16] | further results
COc1ccc(-c2nc3sccn3c2C(=O)c2cn(-c3cc(OC)c(OC)c(OC)c3)nn2)cc1 | 15.6 µg/mL (≈ 31.7 µM) | 7.8 µg/mL (≈ 15.9 µM) | 15.6 µg/mL (≈ 31.7 µM) | 15.6 µg/mL (≈ 31.7 µM) | > 125 µg/mL | > 125 µg/mL | > 125 µg/mL | 7.8 µg/mL (≈ 15.9 µM) | 31.2 µg/mL (≈ 63.5 µM) | 15.6 µg/mL (≈ 31.7 µM) | 31.2 µg/mL (≈ 63.5 µM) | 31.2 µg/mL (≈ 63.5 µM) | > 125 µg/mL | > 125 µg/mL | > 125 µg/mL | 15.6 µg/mL (≈ 31.7 µM) | 
COc1ccc(-c2nc3sccn3c2C(=O)c2cn(-c3ccc(F)cc3Br)nn2)cc1 | 7.8 µg/mL (≈ 15.7 µM) | 7.8 µg/mL (≈ 15.7 µM) | 3.9 µg/mL (≈ 7.83 µM) | 3.9 µg/mL (≈ 7.83 µM) | > 125 µg/mL | > 125 µg/mL | 15.6 µg/mL (≈ 31.3 µM) | 7.8 µg/mL (≈ 15.7 µM) | 15.6 µg/mL (≈ 31.3 µM) | 15.6 µg/mL (≈ 31.3 µM) | 7.8 µg/mL (≈ 15.7 µM) | 7.8 µg/mL (≈ 15.7 µM) | > 125 µg/mL | > 125 µg/mL | 15.6 µg/mL (≈ 31.3 µM) | 15.6 µg/mL (≈ 31.3 µM) | 
COc1ccc(-n2cc(C(=O)c3c(-c4ccccc4)nc4sccn34)nn2)cc1 | 3.9 µg/mL (≈ 9.71 µM) | 7.8 µg/mL (≈ 19.4 µM) | 3.9 µg/mL (≈ 9.71 µM) | 7.8 µg/mL (≈ 19.4 µM) | > 125 µg/mL | > 125 µg/mL | 15.6 µg/mL (≈ 38.9 µM) | 15.6 µg/mL (≈ 38.9 µM) | 7.8 µg/mL (≈ 19.4 µM) | 15.6 µg/mL (≈ 38.9 µM) | 7.8 µg/mL (≈ 19.4 µM) | 15.6 µg/mL (≈ 38.9 µM) | > 125 µg/mL | > 125 µg/mL | 31.2 µg/mL (≈ 77.7 µM) | 31.2 µg/mL (≈ 77.7 µM) | 
O=C(c1cn(-c2ccc(C(F)(F)F)cc2)nn1)c1c(-c2ccc(Cl)cc2)nc2sccn12 | 15.6 µg/mL (≈ 32.9 µM) | > 125 µg/mL | > 125 µg/mL | > 125 µg/mL | > 125 µg/mL | > 125 µg/mL | > 125 µg/mL | 15.6 µg/mL (≈ 32.9 µM) | 31.2 µg/mL (≈ 65.8 µM) | > 125 µg/mL | > 125 µg/mL | > 125 µg/mL | > 125 µg/mL | > 125 µg/mL | > 125 µg/mL | 15.6 µg/mL (≈ 32.9 µM) | 
COc1ccc(-c2nc3sccn3c2C(=O)c2cn(-c3ccc(F)cc3)nn2)cc1 | 3.9 µg/mL (≈ 9.3 µM) | 7.8 µg/mL (≈ 18.6 µM) | 3.9 µg/mL (≈ 9.3 µM) | 3.9 µg/mL (≈ 9.3 µM) | > 125 µg/mL | > 125 µg/mL | > 125 µg/mL | 15.6 µg/mL (≈ 37.2 µM) | 7.8 µg/mL (≈ 18.6 µM) | 15.6 µg/mL (≈ 37.2 µM) | 7.8 µg/mL (≈ 18.6 µM) | 7.8 µg/mL (≈ 18.6 µM) | > 125 µg/mL | > 125 µg/mL | > 125 µg/mL | 31.2 µg/mL (≈ 74.4 µM) | 
O=C(c1cn(-c2ccc(F)cc2)nn1)c1c(-c2ccccc2)nc2sccn12 | 7.8 µg/mL (≈ 20 µM) | > 125 µg/mL | > 125 µg/mL | > 125 µg/mL | > 125 µg/mL | > 125 µg/mL | > 125 µg/mL | 15.6 µg/mL (≈ 40.1 µM) | 15.6 µg/mL (≈ 40.1 µM) | > 125 µg/mL | > 125 µg/mL | > 125 µg/mL | > 125 µg/mL | > 125 µg/mL | > 125 µg/mL | 31.2 µg/mL (≈ 80.1 µM) | 
Clc1ccc(COC(Cn2ccnc2)c2ccc(Cl)cc2Cl)c(Cl)c1 (centres undefined) [MICONAZOLE] |  |  |  |  |  |  |  | 3.9 µg/mL (≈ 9.37 µM) |  |  |  |  |  |  |  | 3.9 µg/mL (≈ 9.37 µM) | MIC [1]: inactive; MIC [2]: inactive; MIC [3]: inactive; MIC [4]: inactive; MIC [5]: inactive; MIC [6]: inactive; MIC [7]: inactive; MBC [9]: inactive; MBC [10]: inactive; MBC [11]: inactive; MBC [12]: inactive; MBC [13]: inactive; MBC [14]: inactive; MBC [15]: inactive
O=C(c1cn(-c2ccc(C(F)(F)F)cc2)nn1)c1c(-c2ccccc2)nc2sccn12 | 3.9 µg/mL (≈ 8.88 µM) | 7.8 µg/mL (≈ 17.8 µM) | 3.9 µg/mL (≈ 8.88 µM) | 3.9 µg/mL (≈ 8.88 µM) | > 125 µg/mL | > 125 µg/mL | > 125 µg/mL | 15.6 µg/mL (≈ 35.5 µM) | 7.8 µg/mL (≈ 17.8 µM) | 15.6 µg/mL (≈ 35.5 µM) | 7.8 µg/mL (≈ 17.8 µM) | 7.8 µg/mL (≈ 17.8 µM) | > 125 µg/mL | > 125 µg/mL | > 125 µg/mL | 31.2 µg/mL (≈ 71 µM) | 
COc1ccc(-n2cc(C(=O)c3c(-c4ccc(Cl)cc4)nc4sccn34)nn2)cc1 | 3.9 µg/mL (≈ 8.95 µM) | 7.8 µg/mL (≈ 17.9 µM) | 3.9 µg/mL (≈ 8.95 µM) | 3.9 µg/mL (≈ 8.95 µM) | > 125 µg/mL | > 125 µg/mL | 3.9 µg/mL (≈ 8.95 µM) | 7.8 µg/mL (≈ 17.9 µM) | 7.8 µg/mL (≈ 17.9 µM) | 15.6 µg/mL (≈ 35.8 µM) | 7.8 µg/mL (≈ 17.9 µM) | 7.8 µg/mL (≈ 17.9 µM) | > 125 µg/mL | > 125 µg/mL | 7.8 µg/mL (≈ 17.9 µM) | 15.6 µg/mL (≈ 35.8 µM) | 
